Experimental data reported in US8680275B2, “Fused heterocyclic compounds as orexin receptor modulators” (Janssen Pharmaceutica NV, priority 2009, dated 2014).
pKi: −log10 of the molar value.

What was measured:
[1] = biological target: human orexin 1 receptor (Homo sapiens (Human), UniProt O43613); assay: Human orexin 1 receptor radioligand binding ([3H]-SB674042 competition); details: CHO cells stably expressing human orexin 1 receptor; [3H]-SB674042 4 nM final; read-out: OR-1 Ki
Procedure: (§1) The in vitro affinity of the compounds for the human orexin-1 and orexin-2 receptors was determined by competitive radioligand binding using [^3H]SB SB674042 (1-(5-(2-fluoro-phenyl)-2-methyl-thiazol-4-yl)-1-((S)-2-(5-phenyl-(1,3,4)oxadiazol-2-ylmethyl)-pyrrolidin-1-yl)methanone) (Langmead et al., British Journal of Pharmacology 2004, 141:340-346.) and [^3H]EMPA (N-ethyl-2[(6-methoxy-pyridin-3-yl)-(toluene-2-sulfonyl)-amino]-N-pyridin-3-ylmethyl acetamide) (Malherbe et al., British Journal of Pharmacology, 2009, 156(8), 1326-1341), respectively.
Human Orexin 1 Receptor Radioligand Binding Studies
Chinese ovary cells (CHO) stably expressing human orexin 1 receptor (Genebank accession number NM_001526) were grown to confluency in DMEM/F12 (Gibco, Cat #11039), 10% FBS, 1× Pen/Strep, 600 μg/mL G418 media on 150 cm^2 tissue culture plates, washed with 5 mM EDTA in PBS (HyClone Dulbecco's Phoshpate Buffered Saline 1× with Calcium and Magnesium, Cat #SH30264.01, hereafter referred to simply as PBS) and scraped into 50 ml tubes. After centrifugation (2K xG, 10 min at 4° C.), the supernatant was aspirated and the pellets frozen and stored at −80° C. Cells were resuspended in PBS in the presence of 1 tablet of protease inhibitor cocktail (Roche, Cat. #11836145001) per 50 mL. […] Compounds were solubilized in 100% DMSO (Acros Organics, Cat. #61042-1000) and tested over a range of 7 concentrations (from 0.1 nM to 10 μM). The final concentration of DMSO in the reactions is equal to or less than 0.1%. Total and nonspecific binding was determined in the absence and presence of 10 μM (1-(6,8-difluoro-2-methylquinolin-4-yl)-3-[4-(dimethylamino)phenyl]urea, CAS Registry #288150-92-5). The total volume of each reaction is 200 μL (20 μL of diluted compounds, 80 μL of [^3H]-SB674042 diluted in PBS and 100 μL of the cell suspension). Reactions were run for 60 min at room temperature and terminated by filtration through GF/C filter plates (PerkinElmer, Cat. #6005174) presoaked in 0.3% polyethylenimine using the cell harvester (PerkinElmer Filtermate). The plates were washed 3 times by aspirating 30 ml PBS through the plates. Plates were dried in 55° C. oven for 60 min, scintillation fluid was added, and the radioactivity was counted on a Topcount (Packard).

[2] = biological target: human orexin-2 receptor (Homo sapiens (Human), UniProt O43614); assay: Human orexin 2 receptor radioligand binding ([3H]-EMPA competition); details: HEK293 cells stably expressing human orexin-2 receptor; [3H]-EMPA 5 nM final; read-out: OR-2 Ki
Chain of human orexin-2 receptor (O43614 whole entry): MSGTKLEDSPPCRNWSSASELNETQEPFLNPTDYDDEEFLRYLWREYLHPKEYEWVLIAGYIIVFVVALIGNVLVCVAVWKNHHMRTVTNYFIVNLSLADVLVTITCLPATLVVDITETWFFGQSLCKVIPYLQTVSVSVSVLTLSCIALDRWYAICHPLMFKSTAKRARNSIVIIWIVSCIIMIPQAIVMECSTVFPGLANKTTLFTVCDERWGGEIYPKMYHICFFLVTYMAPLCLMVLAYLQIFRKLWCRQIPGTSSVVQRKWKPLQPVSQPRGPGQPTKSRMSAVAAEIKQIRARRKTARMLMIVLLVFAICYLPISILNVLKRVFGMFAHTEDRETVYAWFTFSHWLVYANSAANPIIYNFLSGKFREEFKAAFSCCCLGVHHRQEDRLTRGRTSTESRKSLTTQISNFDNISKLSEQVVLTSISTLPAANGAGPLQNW
Procedure: as §1
Human Orexin 2 Receptor Radioligand Binding Studies
HEK293 stably expressing human orexin-2 receptor (Genebank accession number NM_001526) were grown to confluency in DMEM/F12 (Gibco, Cat #11039), in DMEM, 10% FBS, 1× Pen/Strep, 1× NaPyruvate, 1×HEPES, 600 ug/ml G418 media on 150 cm^2 tissue culture plates, washed with 5 mM EDTA in PBS (HyClone Dulbecco's Phosphate Buffered Saline 1× with Calcium and Magnesium, Cat #SH30264.01, hereafter referred to simply as PBS) and scraped into 50 ml tubes. After centrifugation (2K xG, 10 min at 4° C.), the supernatant was aspirated and the pellets frozen and stored at −80° C. Cells were resuspended in PBS in the presence of 1 tablet of protease inhibitor cocktail (Roche, Cat. #11836145001) per 50 mL. […] Competition binding experiments in 96 well polypropylene plates were performed using [^3H]-EMPA (Moravek Corporation, specific activity=27 Ci/mmol), diluted to a […] concentration in PBS (5 nM final concentration). Compounds were solubilized in 100% DMSO (Acros Organics, Cat. #61042-1000) and tested over a range of 7 concentrations (from 0.1 nM to 10 μM). The final concentration of DMSO in the reactions is equal to or less than 0.1%. Total and nonspecific binding was determined in the absence and presence of 10 μM (N-[2-(3,4-dimethoxyphenyl)ethyl]-N-methylnaphthalene-1-carboxamide, CAS Registry #1089563-88-1). The total volume of each reaction is 200 μL (20 μL of diluted compounds, 80 μL of [^3H]-EMPA diluted in PBS and 100 μL of the cell suspension). Reactions were run for 60 min at room temperature and terminated by filtration through GF/C filter plates (PerkinElmer, Cat. #6005174) presoaked in 0.3% polyethylenimine using the cell harvester (Perkin Elmer Filtermate). The plates were washed 3 times by aspirating 30 ml PBS through the plates. Plates were dried in 55° C. oven for 60 min, scintillation fluid was added, and the radioactivity was counted on a Topcount (Packard).

Chain of human orexin 1 receptor (O43613 whole entry): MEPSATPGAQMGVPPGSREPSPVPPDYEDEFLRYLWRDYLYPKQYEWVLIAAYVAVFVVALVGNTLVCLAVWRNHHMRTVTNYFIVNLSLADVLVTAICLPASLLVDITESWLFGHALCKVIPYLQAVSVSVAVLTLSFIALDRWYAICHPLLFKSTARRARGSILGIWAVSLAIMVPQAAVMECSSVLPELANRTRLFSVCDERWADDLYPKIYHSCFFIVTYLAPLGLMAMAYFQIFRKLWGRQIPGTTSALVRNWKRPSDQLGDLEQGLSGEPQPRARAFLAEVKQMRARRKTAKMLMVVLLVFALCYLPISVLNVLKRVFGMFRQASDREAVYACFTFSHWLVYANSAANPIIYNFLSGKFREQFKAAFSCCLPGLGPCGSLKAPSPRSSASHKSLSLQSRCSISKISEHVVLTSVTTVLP

pKi [1]	pKi [2]	SMILES
6.56	7.04	O=C(c1ccccc1-c1cccs1)N1C[C@@H]2CN(c3nccc(-c4ccccc4)n3)[C@@H]2C1 (single isomer, unassigned) [Example 55, 6-(4-Phenylpyrimidin-2-yl)-3-[(2-thiophen-2-ylphenyl)carbonyl]-3,6-diazabicyclo[3.2.0]heptane]
7.26	6.89	O=C(c1ccccc1-c1cccs1)N1C[C@H]2CN(c3nccc(-c4ccccc4)n3)[C@H]2C1 (single isomer, unassigned) [Example 56, 6-(4-Phenylpyrimidin-2-yl)-3-[(2-thiophen-2-ylphenyl)carbonyl]-3,6-diazabicyclo[3.2.0]heptane]
–	8.40	Cc1cc(C)nc(N2C[C@@H]3CCN(C(=O)c4ccccc4-c4ccco4)C[C@@H]32)n1 [Example 2, (1R,6S)[8-(4,6-Dimethyl-pyrimidin-2-yl)-3,8-diaza-bicyclo[4.2.0]oct-3-yl]-(2-furan-2-yl-phenyl)-methanone]
6.77	8.10	Cc1cc(C)nc(N2C[C@@H]3CCN(C(=O)c4ccccc4-c4ccccc4)C[C@@H]32)n1 [Example 3, (1R,6S)-Biphenyl-2-yl-[8-(4,6-dimethyl-pyrimidin-2-yl)-3,8-diaza-bicyclo[4.2.0]oct-3-yl]-methanone]
–	8.15	O=C(c1ccccc1-c1cccs1)N1CC[C@H]2CN(c3cnc4ccccc4n3)[C@H]2C1 [Example 4, (1R,6S)(8-Quinoxalin-2-yl-3,8-diaza-bicyclo[4.2.0]oct-3-yl)-(2-thiophen-2-yl-phenyl)-methanone]
7.74	7.70	O=C(c1ccccc1-c1ccco1)N1CC[C@H]2CN(c3cnc4ccccc4n3)[C@H]2C1 [Example 6, (1R,6S)(2-Furan-2-yl-phenyl)-(8-quinoxalin-2-yl-3,8-diaza-bicyclo[4.2.0]oct-3-yl)-methanone]
6.43	7.82	Cc1cc(C)nc(N2C[C@@H]3CCN(C(=O)c4ccccc4-n4cccc4)C[C@@H]32)n1 [Example 7, (1R,6S)[8-(4,6-Dimethyl-pyrimidin-2-yl)-3,8-diaza-bicyclo[4.2.0]oct-3-yl]-(2-pyrrol-1-yl-phenyl)-methanone]
7.66	7.48	O=C(c1ccccc1-c1ccccc1)N1CCC2CN(c3nccc(-c4ccccc4)n3)C2C1 (stereo not drawn) [Example 9, Biphenyl-2-yl-[8-(4-phenyl-pyrimidin-2-yl)-3,8-diaza-bicyclo[4.2.0]oct-3-yl]-methanone]
7.74	7.36	Cc1ccc(-c2ccccc2C(=O)N2CC[C@H]3CN(c4cnc5ccccc5n4)[C@H]3C2)cc1 [Example 10, (1R,6S)(4′-Methyl-biphenyl-2-yl)-(8-quinoxalin-2-yl-3,8-diaza-bicyclo[4.2.0]oct-3-yl)-methanone]
6.84	6.85	O=C(c1ccccc1-c1ccccc1)N1CCC2CN(c3nc4ccccc4o3)C2C1 (stereo not drawn) [Example 11, (8-Benzooxazol-2-yl-3,8-diaza-bicyclo[4.2.0]oct-3-yl)-biphenyl-2-yl-methanone]
–	8.22	CCOc1ccc2ccccc2c1C(=O)N1CC[C@H]2CN(c3nc(C)cc(C)n3)[C@H]2C1 [Example 24, (1R,6S)[8-(4,6-Dimethyl-pyrimidin-2-yl)-3,8-diaza-bicyclo[4.2.0]oct-3-yl]-(2-ethoxy-naphthalen-1-yl)-methanone]
6.38	–	Cc1cc(C)nc(N2C[C@@H]3CCN(C(=O)c4ccccc4-n4nccn4)C[C@@H]32)n1 [Example 25, (1R,6S)-[8-(4,6-Dimethyl-pyrimidin-2-yl)-3,8-diaza-bicyclo[4.2.0]oct-3-yl]-(2-[1,2,3]triazol-2-yl-phenyl)-methanone]
–	7.29	O=C(c1cc(F)ccc1-c1ncccn1)N1CC[C@H]2CN(c3cnc4ccccc4n3)[C@H]2C1 [Example 33, (1R,6S)(5-Fluoro-2-pyrimidin-2-yl-phenyl)-(8-quinoxalin-2-yl-3,8-diaza-bicyclo[4.2.0]oct-3-yl)-methanone]
6.36	–	Cc1cc(C)nc(N2C[C@@H]3CCN(C(=O)c4cc(F)ccc4-n4nccn4)C[C@@H]32)n1 [Example 41, (1R,6S)-[8-(4,6-Dimethyl-pyrimidin-2-yl)-3,8-diaza-bicyclo[4.2.0]oct-3-yl]-(5-fluoro-2-[1,2,3]triazol-2-yl-phenyl)-methanone]
–	7.47	Cc1cc(N2C[C@@H]3CCN(C(=O)c4cc(F)ccc4-n4nccn4)C[C@@H]32)nc(C(F)(F)F)n1 [Example 42, (1R,6S)-(5-Fluoro-2-[1,2,3]triazol-2-yl-phenyl)-[8-(6-methyl-2-trifluoromethyl-pyrimidin-4-yl)-3,8-diaza-bicyclo[4.2.0]oct-3-yl]-methanone]
6.16	–	Cc1cc(N2C[C@@H]3CCN(C(=O)c4ccc(F)cc4-n4nccn4)C[C@@H]32)nc(N(C)C)n1 [Example 45, (1R,6S)-[8-(2-Dimethylamino-6-methyl-pyrimidin-4-yl)-3,8-diaza-bicyclo[4.2.0]oct-3-yl]-(4-fluoro-2-[1,2,3]triazol-2-yl-phenyl)-methanone]
5.00	–	Cc1nccnc1N1C[C@@H]2CCN(C(=O)c3cc(F)ccc3-n3nccn3)C[C@@H]21 [Example 107, (1R,6S)-3-{[5-Fluoro-2-(2H-1,2,3-triazol-2-yl)phenyl]carbonyl}-8-(3-methylpyrazin-2-yl)-3,8-diazabicyclo[4.2.0]octane]
–	5.00	Cc1nccnc1N1C[C@@H]2CCN(C(=O)c3cccc(F)c3-n3nccn3)C[C@@H]21 [Example 109, (1R,6S)-3-{[3-Fluoro-2-(2H-1,2,3-triazol-2-yl)phenyl]carbonyl}-8-(3-methylpyrazin-2-yl)-3,8-diazabicyclo[4.2.0]octane]
5.00	–	COc1cnc(C)nc1C(=O)N1CC[C@H]2CN(c3nc(C)cc(C)n3)[C@H]2C1 [Example 136, (1R,6S)-8-(4,6-Dimethylpyrimidin-2-yl)-3-[(5-methoxy-2-methylpyrimidin-4-yl)carbonyl]-3,8-diazabicyclo[4.2.0]octane]
–	7.32	Cc1cc(C)nc(N2C[C@@H]3CCN(C(=O)c4ccccc4-c4ncn[nH]4)C[C@@H]32)n1 [Example 172, (1R,6S)-8-(4,6-Dimethylpyrimidin-2-yl)-3-{[2-(1H-1,2,4-triazol-5-yl)phenyl]carbonyl}-3,8-diazabicyclo[4.2.0]octane]

SMILES	pKi [1]	pKi [2]
Cc1cc(C)nc(N2C[C@@H]3CCN(C(=O)c4ccccc4-c4cccs4)C[C@@H]32)n1 [Example 1, (1R,6S)[8-(4,6-Dimethyl-pyrimidin-2-yl)-3,8-diaza-bicyclo[4.2.0]oct-3-yl]-(2-thiophen-2-yl-phenyl)-methanone]	7.19	8.40
